Reference: US6355799B1, “Substituted benzene compounds, process for their preparation, and herbicidal and defoliant compositions containing them” (ISK Americas Incorporated, priority 1997, dated 2002)

Tests used:
Assay type in all cases: in vivo
[1] = tested on: sicklepod (Cassia obtusifolia, CASOB); assay: Post-emerge test, greenhouse herbicide activity screening
Procedure, shortened: (§1)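 Each test used a mechanized track sprayer delivering 187 l/ha of acetone solution at 15–1000 g ai/ha. Post-emerge foliage at 2–3 leaves was treated with added 0.25% v/v non-ionic surfactant and bottom-watered only. Injury was assessed on day 14, where 100 means total kill.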

[2] = tested on: velvetleaf (Abutilon theophrasti, ABUTH); assay: as above
Procedure, shortened: as §1

[3] = tested on: johnsongrass (Sorghum halepense, SORHA); assay: as above
Procedure, shortened: as §1

[4] = tested on: ivyleaf morningglory (Ipomoea hederacea, IPOHE); assay: as above
Procedure, shortened: as §1

[5] = tested on: lambsquarters (Chenopodium album, CHEAL); assay: as above
Procedure, shortened: as §1

[6] = tested on: green foxtail (Setaria viridis, SETVI); assay: as above
Procedure, shortened: as §1

[7] = tested on: redroot pigweed (Amaranthus retroflexus, AMARE); assay: as above
Procedure, shortened: as §1

[8] = tested on: large crabgrass (Digitaria sanguinalis, DIGSA); assay: as above
Procedure, shortened: as §1

[9] = tested on: barnyardgrass (Echinochloa crus-galli, ECHCG); assay: as above
Procedure, shortened: as §1

[10] = tested on: sicklepod (Cassia obtusifolia, CASOB); assay: Pre-emerge test, greenhouse herbicide activity screening; details: for Pre-emerge herbicidal activity, phytotoxicity rating CASOB: rating scale 0-100, 14 days after application; for phytotoxicity rating CASOB: pre-emerge, 14 days after application, rating scale 0-100
Procedure, shortened: (§2)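 Applied at 15–1000 g ai/ha from acetone in 187 l/ha spray volume. Post-emergence applications included 0.25% v/v non-ionic surfactant and reached plants sown 8–21 days before. Pre-emergence applications were incorporated by surface watering. Efficacy or crop damage was rated on a 0–100 scale after 14 days.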

[11] = tested on: velvetleaf (Abutilon theophrasti, ABUTH); assay: as above; details: for Pre-emerge herbicidal activity, phytotoxicity rating ABUTH: rating scale 0-100, 14 days after application; for phytotoxicity rating ABUTH: pre-emerge, 14 days after application, rating scale 0-100
Procedure, shortened: as §2

[12] = tested on: johnsongrass (Sorghum halepense, SORHA); assay: as above; details: for Pre-emerge herbicidal activity, phytotoxicity rating SORHA: rating scale 0-100, 14 days after application; for phytotoxicity rating SORHA: pre-emerge, 14 days after application, rating scale 0-100
Procedure, shortened: as §2

[13] = tested on: ivyleaf morningglory (Ipomoea hederacea, IPOHE); assay: as above; details: for Pre-emerge herbicidal activity, phytotoxicity rating IPOHE: rating scale 0-100, 14 days after application; for phytotoxicity rating IPOHE: pre-emerge, 14 days after application, rating scale 0-100
Procedure, shortened: as §2

[14] = tested on: common ragweed (Ambrosia artemisizfolia L., AMBEL); assay: as above; details: for Pre-emerge herbicidal activity, phytotoxicity rating AMBEL: rating scale 0-100, 14 days after application; for phytotoxicity rating AMBEL: pre-emerge, 14 days after application, rating scale 0-100
Procedure, shortened: as §2

[15] = tested on: lambsquarters (Chenopodium album, CHEAL); assay: as above; details: for Pre-emerge herbicidal activity, phytotoxicity rating CHEAL: rating scale 0-100, 14 days after application; for phytotoxicity rating CHEAL: pre-emerge, 14 days after application, rating scale 0-100
Procedure, shortened: as §2

[16] = tested on: green foxtail (Setaria viridis, SETVI); assay: as above; details: for Pre-emerge herbicidal activity, phytotoxicity rating SETVI: rating scale 0-100, 14 days after application; for phytotoxicity rating SETVI: pre-emerge, 14 days after application, rating scale 0-100
Procedure, shortened: as §2

[17] = tested on: large crabgrass (Digitaria sanguinalis, DIGSA); assay: as above; details: for Pre-emerge herbicidal activity, phytotoxicity rating DIGSA: rating scale 0-100, 14 days after application; for phytotoxicity rating DIGSA: pre-emerge, 14 days after application, rating scale 0-100
Procedure, shortened: as §2

[18] = tested on: barnyardgrass (Echinochloa crus-galli, ECHCG); assay: as above; details: for Pre-emerge herbicidal activity, phytotoxicity rating ECHCG: rating scale 0-100, 14 days after application; for phytotoxicity rating ECHCG: pre-emerge, 14 days after application, rating scale 0-100
Procedure, shortened: as §2

[19] = tested on: redroot pigweed (Amaranthus retroflexus, AMARE); assay: as above; details: for Pre-emerge herbicidal activity, phytotoxicity rating AMARE: rating scale 0-100, 14 days after application; for phytotoxicity rating AMARE: pre-emerge, 14 days after application, rating scale 0-100
Procedure, shortened: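 Herbicidal damage is scored 0 (none) to 100 (complete plant death) two weeks after a simulated field spray. Rates span 15–1000 g ai/ha, delivered in acetone at 187 l/ha. For post-emergence treatments, plants have 2–3 leaves and the spray carries 0.25% v/v non-ionic surfactant.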

[20] = tested on: field corn (Zea mays L., var. Dekalb 535, CORN); assay: Pre-emerge test, crop safety; details: pre-emerge, 14 days after application, rating scale 0-100
Procedure, shortened: (§3)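 Visual ratings on a 0-100 scale (0 no damage, 100 all plants dead) were taken at 14 days after treatment. Rates of 15-1000 g ai/ha in acetone, 187 l/ha, were sprayed onto soil one day after planting (pre-emerge) or onto 2-3 leaf plants with 0.25% v/v surfactant (post-emerge).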

[21] = tested on: upland rice (Oryza sp., var. Tebonnet, RICE); assay: Pre-emerge test, crop safety; details: pre-emerge, 14 days after application, rating scale 0-100
Procedure, shortened: as §3

[22] = Rate 250 g ai/ha, rating scale 0-100 (0 no damage, 100 complete death), 14 days after application

## O=C(Nc1cc(Cl)ccc1N1C(=O)c2ccccc2C1=O)c1ccc2ccccc2c1 [Compound 13-5, N-[4-chloro-2-(2-naphthoylamino)phenyl]phthalimide]
[1]; [22]
  Post-emerge Herbicidal Activity, phytotoxicity rating CASOB: 30
[1]; Senna obtusifolia, post-emergence, 336 h, post-emerge, 63 g ai/ha, phytotoxicity rating 0-100 at 14 days after application, read-out: Post-emerge Herbicidal Activity CASOB
  pest or weed control at 63 g/ha: 40%
[2]; Abutilon theophrasti, post-emergence, 336 h, post-emerge, 63 g ai/ha, phytotoxicity rating 0-100 at 14 days after application, read-out: Post-emerge Herbicidal Activity ABUTH
  pest or weed control at 63 g/ha: 70%
[2]; [22]
  Post-emerge Herbicidal Activity, phytotoxicity rating ABUTH: 70
[3]; [22]
  Post-emerge Herbicidal Activity, phytotoxicity rating SORHA: 0
[3]; Sorghum halepense, post-emergence, 336 h, post-emerge, 63 g ai/ha, phytotoxicity rating 0-100 at 14 days after application, read-out: Post-emerge Herbicidal Activity SORHA
  pest or weed control at 63 g/ha: 0%
[4]; Ipomoea, post-emergence, 336 h, post-emerge, 63 g ai/ha, phytotoxicity rating 0-100 at 14 days after application, read-out: Post-emerge Herbicidal Activity IPOHE
  pest or weed control at 63 g/ha: 50%
[4]; [22]
  Post-emerge Herbicidal Activity, phytotoxicity rating IPOHE: 60
[5]; Chenopodium album, post-emergence, 336 h, post-emerge, 63 g ai/ha, phytotoxicity rating 0-100 at 14 days after application, read-out: Post-emerge Herbicidal Activity CHEAL
  pest or weed control at 63 g/ha: 95%
[5]; [22]
  Post-emerge Herbicidal Activity, phytotoxicity rating CHEAL: 90
[6]; [22]
  Post-emerge Herbicidal Activity, phytotoxicity rating SETVI: 10
[6]; Setaria viridis, post-emergence, 336 h, post-emerge, 63 g ai/ha, phytotoxicity rating 0-100 at 14 days after application, read-out: Post-emerge Herbicidal Activity SETVI
  pest or weed control at 63 g/ha: 0%
[7]; Amaranthus retroflexus, post-emergence, 336 h, post-emerge, 63 g ai/ha, phytotoxicity rating 0-100 at 14 days after application, read-out: Post-emerge Herbicidal Activity AMARE
  pest or weed control at 63 g/ha: 70%
[7]; [22]
  Post-emerge Herbicidal Activity, phytotoxicity rating AMARE: 75
[8]; Digitaria sanguinalis, post-emergence, 336 h, post-emerge, 63 g ai/ha, phytotoxicity rating 0-100 at 14 days after application, read-out: Post-emerge Herbicidal Activity DIGSA
  pest or weed control at 63 g/ha: 0%
[8]; [22]
  Post-emerge Herbicidal Activity, phytotoxicity rating DIGSA: 20
[9]; Echinochloa crus-galli, post-emergence, 336 h, post-emerge, 63 g ai/ha, phytotoxicity rating 0-100 at 14 days after application, read-out: Post-emerge Herbicidal Activity ECHCG
  pest or weed control at 63 g/ha: 0%
[9]; [22]
  Post-emerge Herbicidal Activity, phytotoxicity rating ECHCG: 0
[10]; 63 g ai/ha
  Pre-emerge herbicidal activity, phytotoxicity rating CASOB: 0
[10]; 250 g ai/ha
  Pre-emerge herbicidal activity, phytotoxicity rating CASOB: 0
[11]; 63 g ai/ha
  Pre-emerge herbicidal activity, phytotoxicity rating ABUTH: 0
[11]; 250 g ai/ha
  Pre-emerge herbicidal activity, phytotoxicity rating ABUTH: 0
[12]; 63 g ai/ha
  Pre-emerge herbicidal activity, phytotoxicity rating SORHA: 0
[12]; 250 g ai/ha
  Pre-emerge herbicidal activity, phytotoxicity rating SORHA: 30
[13]; 63 g ai/ha
  Pre-emerge herbicidal activity, phytotoxicity rating IPOHE: 0
[13]; 250 g ai/ha
  Pre-emerge herbicidal activity, phytotoxicity rating IPOHE: 0
[14]; 63 g ai/ha
  Pre-emerge herbicidal activity, phytotoxicity rating AMBEL: 0
[14]; 250 g ai/ha
  Pre-emerge herbicidal activity, phytotoxicity rating AMBEL: 0
[15]; 63 g ai/ha
  Pre-emerge herbicidal activity, phytotoxicity rating CHEAL: 20
[15]; 250 g ai/ha
  Pre-emerge herbicidal activity, phytotoxicity rating CHEAL: 50
[16]; 63 g ai/ha
  Pre-emerge herbicidal activity, phytotoxicity rating SETVI: 30
[16]; 250 g ai/ha
  Pre-emerge herbicidal activity, phytotoxicity rating SETVI: 50
[17]; 63 g ai/ha
  Pre-emerge herbicidal activity, phytotoxicity rating DIGSA: 0
[17]; 250 g ai/ha
  Pre-emerge herbicidal activity, phytotoxicity rating DIGSA: 10
[18]; 63 g ai/ha
  Pre-emerge herbicidal activity, phytotoxicity rating ECHCG: 0
[18]; 250 g ai/ha
  Pre-emerge herbicidal activity, phytotoxicity rating ECHCG: 0
[19]; 63 g ai/ha
  Pre-emerge herbicidal activity, phytotoxicity rating AMARE: 30
[19]; 250 g ai/ha
  Pre-emerge herbicidal activity, phytotoxicity rating AMARE: 95

## CCOC(=O)C(Cl)Cc1c(OCC)c(Cl)cc(F)c1-n1c(=O)cc(C(F)(F)F)n(C)c1=O (centres unmarked) [14-64]
[10]; 63 g ai/ha
  phytotoxicity rating CASOB: 0
[10]; 250 g ai/ha
  phytotoxicity rating CASOB: 0
[11]; 63 g ai/ha
  phytotoxicity rating ABUTH: 90
[11]; 250 g ai/ha
  phytotoxicity rating ABUTH: 100
[12]; 63 g ai/ha
  phytotoxicity rating SORHA: 0
[12]; 250 g ai/ha
  phytotoxicity rating SORHA: 20
[13]; 63 g ai/ha
  phytotoxicity rating IPOHE: 0
[13]; 250 g ai/ha
  phytotoxicity rating IPOHE: 0
[14]; 63 g ai/ha
  phytotoxicity rating AMBEL: 20
[14]; 250 g ai/ha
  phytotoxicity rating AMBEL: 60
[15]; 63 g ai/ha
  phytotoxicity rating CHEAL: 60
[15]; 250 g ai/ha
  phytotoxicity rating CHEAL: 100
[16]; 63 g ai/ha
  phytotoxicity rating SETVI: 0
[16]; 250 g ai/ha
  phytotoxicity rating SETVI: 100
[17]; 63 g ai/ha
  phytotoxicity rating DIGSA: 50
[17]; 250 g ai/ha
  phytotoxicity rating DIGSA: 100
[18]; 63 g ai/ha
  phytotoxicity rating ECHCG: 0
[18]; 250 g ai/ha
  phytotoxicity rating ECHCG: 95
[20]; 63 g ai/ha
  phytotoxicity rating CORN: 0
[20]; 250 g ai/ha
  phytotoxicity rating CORN: 0
[21]; 63 g ai/ha
  phytotoxicity rating RICE: 0
[21]; 250 g ai/ha
  phytotoxicity rating RICE: 10
[19]; 63 g ai/ha
  phytotoxicity rating AMARE: 100
[19]; 250 g ai/ha
  phytotoxicity rating AMARE: 100
